Test results: ChEMBL document CHEMBL5104138, “Discovery of pyridyl urea sulfonamide inhibitors of NaV1.7” (Bioorg Med Chem Lett, 2022)
≈ marks a conversion by molar mass, not a printed value.

Experiments:
Mus musculus [1] = assay: Antinociceptive activity in capsaicin-induced licking mouse model assessed as reduction in time spent on licking at 3 mg/kg, po relative to control; type: functional; set-up: scale not given: the % may be the effect or the level left
Cytochrome P450 3A4 [2] = target: T1, Cytochrome P450 3A4 (Homo sapiens, UniProt P08684); assay: Time dependent inhibition of CYP3A4 in human liver microsomes using midazolam as substrate incubated for 30 mins; type: ADME, Microsome
T1 sequence (P08684 whole entry): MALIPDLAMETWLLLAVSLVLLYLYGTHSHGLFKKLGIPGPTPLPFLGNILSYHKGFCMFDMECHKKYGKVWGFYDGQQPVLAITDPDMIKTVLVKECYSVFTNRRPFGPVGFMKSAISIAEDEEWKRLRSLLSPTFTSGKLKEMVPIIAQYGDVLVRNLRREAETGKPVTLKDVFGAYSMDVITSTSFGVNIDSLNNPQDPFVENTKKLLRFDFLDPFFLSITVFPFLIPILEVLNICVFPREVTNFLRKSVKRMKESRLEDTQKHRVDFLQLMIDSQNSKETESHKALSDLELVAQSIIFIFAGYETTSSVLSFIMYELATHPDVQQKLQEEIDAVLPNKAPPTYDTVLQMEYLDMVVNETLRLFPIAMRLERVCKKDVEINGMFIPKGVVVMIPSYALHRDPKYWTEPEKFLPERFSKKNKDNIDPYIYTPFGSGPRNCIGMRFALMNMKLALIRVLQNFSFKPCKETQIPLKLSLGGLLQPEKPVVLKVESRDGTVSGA

Cytochrome P450 3A4 [3] = target: T1, Cytochrome P450 3A4; assay: Time dependent inhibition of CYP3A4 in human liver microsomes using midazolam as substrate preincubated for 30 mins followed by substrate addition; type: ADME, Microsome
Cytochrome P450 2C9 [4] = target: T2, Cytochrome P450 2C9 (Homo sapiens, UniProt P11712); assay: Inhibition of CYP2C9 (unknown origin) using diclofenac as substrate; type: ADME
T2 sequence (P11712 whole entry): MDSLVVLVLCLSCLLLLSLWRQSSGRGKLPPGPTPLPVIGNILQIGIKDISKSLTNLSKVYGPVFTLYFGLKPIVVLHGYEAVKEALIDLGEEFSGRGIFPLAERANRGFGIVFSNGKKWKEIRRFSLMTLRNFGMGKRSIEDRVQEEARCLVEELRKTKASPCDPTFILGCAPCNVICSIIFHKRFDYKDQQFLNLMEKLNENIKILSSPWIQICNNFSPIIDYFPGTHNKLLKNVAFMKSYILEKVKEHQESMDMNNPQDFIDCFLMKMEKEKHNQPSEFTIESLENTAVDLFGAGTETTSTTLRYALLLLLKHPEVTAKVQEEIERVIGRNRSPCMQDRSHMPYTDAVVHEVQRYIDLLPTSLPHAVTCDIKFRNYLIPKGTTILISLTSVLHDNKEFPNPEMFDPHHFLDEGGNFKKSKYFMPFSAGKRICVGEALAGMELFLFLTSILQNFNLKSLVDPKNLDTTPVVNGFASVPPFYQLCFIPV

[5] = rat, in vivo, iv, 0.5 mg/kg
Description: Unbound clearance in rat at 0.5 mg/kg, iv

[6] = Intrinsic clearance in rat liver microsomes assessed as loss of parent compound incubated for 30 mins; type: ADME, Microsome; details: read-out: CLH
[7] = target: T3, Sodium channel protein type 9 subunit alpha (Homo sapiens, UniProt Q15858); assay: Inhibition of human Nav1.7 by PatchXpress assay
[8] = Lipophilicity, logD of compound at pH 7.4; type: physicochemical; details: buffer
[9] = Clearance in rat at 0.5 mg/kg, iv; details: in vivo
[10] = target: T3, Sodium channel protein type 9 subunit alpha; assay: Inhibition of human Nav1.7 at 1 uM by PatchXpress assay relative to control
Target sequence in this assay (Q15858 whole entry, looked up): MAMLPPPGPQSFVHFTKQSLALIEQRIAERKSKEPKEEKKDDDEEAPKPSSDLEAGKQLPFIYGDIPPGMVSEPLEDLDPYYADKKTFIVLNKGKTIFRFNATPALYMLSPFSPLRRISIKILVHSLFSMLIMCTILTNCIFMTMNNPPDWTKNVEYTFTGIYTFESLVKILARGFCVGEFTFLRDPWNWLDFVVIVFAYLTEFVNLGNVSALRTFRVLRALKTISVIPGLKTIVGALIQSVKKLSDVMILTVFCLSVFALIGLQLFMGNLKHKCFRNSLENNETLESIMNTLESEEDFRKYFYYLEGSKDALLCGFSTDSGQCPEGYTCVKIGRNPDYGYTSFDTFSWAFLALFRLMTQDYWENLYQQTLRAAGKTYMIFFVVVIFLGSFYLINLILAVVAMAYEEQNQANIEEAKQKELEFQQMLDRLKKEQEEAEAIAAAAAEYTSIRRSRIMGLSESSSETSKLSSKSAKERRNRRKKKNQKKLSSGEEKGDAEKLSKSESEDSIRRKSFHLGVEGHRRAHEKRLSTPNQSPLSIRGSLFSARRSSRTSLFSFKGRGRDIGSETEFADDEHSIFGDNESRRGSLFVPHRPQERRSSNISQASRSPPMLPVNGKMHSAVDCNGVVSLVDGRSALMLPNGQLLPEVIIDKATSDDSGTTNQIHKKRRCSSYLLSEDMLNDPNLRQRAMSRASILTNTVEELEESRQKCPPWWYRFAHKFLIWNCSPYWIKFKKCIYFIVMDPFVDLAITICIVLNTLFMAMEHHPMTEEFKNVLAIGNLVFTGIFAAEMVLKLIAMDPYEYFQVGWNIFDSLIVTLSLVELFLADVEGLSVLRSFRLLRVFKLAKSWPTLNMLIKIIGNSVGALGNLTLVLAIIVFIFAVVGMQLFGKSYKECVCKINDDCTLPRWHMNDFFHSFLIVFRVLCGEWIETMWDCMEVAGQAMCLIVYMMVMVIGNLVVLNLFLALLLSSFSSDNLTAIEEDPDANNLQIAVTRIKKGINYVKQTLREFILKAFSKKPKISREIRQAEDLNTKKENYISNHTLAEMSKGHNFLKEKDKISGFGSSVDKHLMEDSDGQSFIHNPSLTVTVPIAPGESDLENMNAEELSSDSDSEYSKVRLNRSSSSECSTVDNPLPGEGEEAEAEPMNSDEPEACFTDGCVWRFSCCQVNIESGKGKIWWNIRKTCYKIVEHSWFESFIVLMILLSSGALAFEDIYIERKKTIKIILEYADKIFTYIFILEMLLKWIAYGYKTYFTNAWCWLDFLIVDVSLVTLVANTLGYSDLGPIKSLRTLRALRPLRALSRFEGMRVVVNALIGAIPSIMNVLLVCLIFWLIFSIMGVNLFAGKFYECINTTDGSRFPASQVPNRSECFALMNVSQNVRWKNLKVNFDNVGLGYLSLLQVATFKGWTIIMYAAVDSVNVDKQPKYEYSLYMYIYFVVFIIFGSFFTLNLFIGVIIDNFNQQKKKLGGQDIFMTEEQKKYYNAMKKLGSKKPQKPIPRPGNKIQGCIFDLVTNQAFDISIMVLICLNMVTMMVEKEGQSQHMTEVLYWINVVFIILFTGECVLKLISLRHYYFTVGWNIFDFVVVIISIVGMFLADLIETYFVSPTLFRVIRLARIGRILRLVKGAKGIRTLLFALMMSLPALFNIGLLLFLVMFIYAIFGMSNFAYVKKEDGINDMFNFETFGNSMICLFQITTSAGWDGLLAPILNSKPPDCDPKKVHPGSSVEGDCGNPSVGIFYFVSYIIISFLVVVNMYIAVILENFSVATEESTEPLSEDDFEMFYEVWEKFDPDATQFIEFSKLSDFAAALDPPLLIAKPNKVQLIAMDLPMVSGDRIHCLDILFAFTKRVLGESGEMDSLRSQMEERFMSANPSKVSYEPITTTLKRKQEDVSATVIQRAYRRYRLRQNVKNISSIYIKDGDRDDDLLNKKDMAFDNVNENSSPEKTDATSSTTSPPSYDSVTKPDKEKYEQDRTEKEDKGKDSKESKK

Mus musculus [11] = assay: Antinociceptive activity in UV burn-induced thermal hyperalgesia mouse model assessed as reduction in latency time at 30 mg/kg, po relative to control; type: functional; set-up: scale not given: the % may be the effect or the level left
[12] = Oral bioavailability in mouse at 100 mg/kg; type: ADME, organism-based; details: in vivo
Mus musculus [13] = assay: Antinociceptive activity in mouse model of Histamine-induced itching assessed as reduction in scratching bouts at 3 mg/kg, po relative to control; type: functional; set-up: scale not given: the % may be the effect or the level left
[14] = Clearance in mouse; type: ADME, organism-based; details: in vivo
Mus musculus [15] = assay: Antinociceptive activity in mouse model of Histamine-induced itching assessed as reduction in scratching bouts at 10 mg/kg, po relative to control; type: functional; set-up: scale not given: the % may be the effect or the level left
[16] = AUC in dog at 2 mg/kg, po; type: ADME, organism-based, Canis lupus familiaris; set-up: dose 2 mg/kg, route po; details: in vivo
Mus musculus [17] = assay: Antinociceptive activity in mouse model of Histamine-induced itching assessed as reduction in scratching bouts at 30 mg/kg, po relative to control; type: functional; set-up: scale not given: the % may be the effect or the level left
[18] = Oral bioavailability in dog at 2 mg/kg; type: ADME, organism-based, Canis lupus familiaris; details: in vivo
[19] = target: Sodium channel protein type 5 subunit alpha (Homo sapiens, UniProt Q14524); assay: Inhibition of human Nav1.5 at -50 mV holding potential by PatchXpress assay
Sodium channel protein type 5 subunit alpha, sequence (Q14524 whole entry): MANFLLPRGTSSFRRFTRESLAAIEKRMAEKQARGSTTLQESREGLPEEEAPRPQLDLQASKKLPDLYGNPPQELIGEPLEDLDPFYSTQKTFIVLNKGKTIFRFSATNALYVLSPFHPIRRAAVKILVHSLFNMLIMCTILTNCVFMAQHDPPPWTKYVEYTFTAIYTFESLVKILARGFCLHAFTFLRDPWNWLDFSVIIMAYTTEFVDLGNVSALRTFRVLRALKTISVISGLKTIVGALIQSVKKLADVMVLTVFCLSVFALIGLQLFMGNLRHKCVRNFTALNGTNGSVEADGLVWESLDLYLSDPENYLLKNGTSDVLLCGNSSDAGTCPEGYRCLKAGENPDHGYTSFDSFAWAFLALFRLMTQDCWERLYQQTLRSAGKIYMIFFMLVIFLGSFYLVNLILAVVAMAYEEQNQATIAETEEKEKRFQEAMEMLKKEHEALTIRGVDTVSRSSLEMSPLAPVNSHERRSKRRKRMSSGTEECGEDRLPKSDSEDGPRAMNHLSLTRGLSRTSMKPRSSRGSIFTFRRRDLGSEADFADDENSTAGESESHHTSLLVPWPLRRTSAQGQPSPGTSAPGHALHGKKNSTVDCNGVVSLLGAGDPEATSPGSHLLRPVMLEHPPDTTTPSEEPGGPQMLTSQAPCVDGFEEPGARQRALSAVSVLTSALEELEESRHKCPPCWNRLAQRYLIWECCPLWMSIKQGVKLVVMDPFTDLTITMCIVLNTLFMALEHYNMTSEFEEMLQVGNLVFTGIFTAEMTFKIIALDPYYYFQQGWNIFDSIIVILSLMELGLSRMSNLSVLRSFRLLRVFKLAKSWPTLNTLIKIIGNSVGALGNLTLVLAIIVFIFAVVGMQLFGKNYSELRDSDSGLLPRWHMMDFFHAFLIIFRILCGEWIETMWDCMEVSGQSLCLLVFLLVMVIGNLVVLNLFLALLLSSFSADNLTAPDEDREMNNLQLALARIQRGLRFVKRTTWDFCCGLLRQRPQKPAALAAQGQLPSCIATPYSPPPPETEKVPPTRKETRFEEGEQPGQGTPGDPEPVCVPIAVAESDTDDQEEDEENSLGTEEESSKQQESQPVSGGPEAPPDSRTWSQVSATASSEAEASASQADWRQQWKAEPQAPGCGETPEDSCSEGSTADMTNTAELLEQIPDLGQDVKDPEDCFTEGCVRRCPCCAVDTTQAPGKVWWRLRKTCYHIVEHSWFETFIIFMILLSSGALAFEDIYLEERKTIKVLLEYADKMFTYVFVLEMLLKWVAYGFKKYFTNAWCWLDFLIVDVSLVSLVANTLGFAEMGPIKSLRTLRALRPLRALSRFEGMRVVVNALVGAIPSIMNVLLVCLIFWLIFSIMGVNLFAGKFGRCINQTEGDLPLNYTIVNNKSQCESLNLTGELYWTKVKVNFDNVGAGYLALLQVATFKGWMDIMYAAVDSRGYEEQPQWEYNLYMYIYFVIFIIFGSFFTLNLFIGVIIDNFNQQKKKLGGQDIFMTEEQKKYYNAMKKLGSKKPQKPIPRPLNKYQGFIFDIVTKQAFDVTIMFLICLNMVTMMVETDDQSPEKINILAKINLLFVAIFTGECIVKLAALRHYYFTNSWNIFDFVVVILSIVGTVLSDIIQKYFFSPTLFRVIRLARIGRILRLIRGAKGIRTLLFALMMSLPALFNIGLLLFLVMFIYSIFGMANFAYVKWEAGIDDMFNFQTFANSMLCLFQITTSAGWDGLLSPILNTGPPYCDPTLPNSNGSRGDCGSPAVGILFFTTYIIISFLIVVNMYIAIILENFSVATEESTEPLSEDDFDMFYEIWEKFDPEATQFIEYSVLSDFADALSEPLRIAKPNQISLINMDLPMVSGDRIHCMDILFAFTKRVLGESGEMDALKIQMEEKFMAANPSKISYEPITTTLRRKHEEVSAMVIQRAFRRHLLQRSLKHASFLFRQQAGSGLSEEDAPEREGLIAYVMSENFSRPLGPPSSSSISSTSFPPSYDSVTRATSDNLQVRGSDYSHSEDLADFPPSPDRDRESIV

[20] = Oral bioavailability in rat at 10 mg/kg; type: ADME, organism-based; details: in vivo
[21] = Permeability in MDCK cells; type: ADME, cell-based, Canis lupus familiaris; details: dog, read-out: permeability
[22] = Unbound clearance in mouse; type: ADME, organism-based; details: in vivo
Mus musculus [23] = assay: Antinociceptive activity in capsaicin-induced licking mouse model assessed as reduction in time spent on licking at 10 mg/kg, po relative to control; type: functional; set-up: scale not given: the % may be the effect or the level left
PXR (NR1I2) = target: T4, PXR (NR1I2) (Homo sapiens, UniProt O75469); assay: Activation of human PXR at 10 uM relative to control; type: toxicity; details: read-out: Activity
T4 sequence (O75469 whole entry): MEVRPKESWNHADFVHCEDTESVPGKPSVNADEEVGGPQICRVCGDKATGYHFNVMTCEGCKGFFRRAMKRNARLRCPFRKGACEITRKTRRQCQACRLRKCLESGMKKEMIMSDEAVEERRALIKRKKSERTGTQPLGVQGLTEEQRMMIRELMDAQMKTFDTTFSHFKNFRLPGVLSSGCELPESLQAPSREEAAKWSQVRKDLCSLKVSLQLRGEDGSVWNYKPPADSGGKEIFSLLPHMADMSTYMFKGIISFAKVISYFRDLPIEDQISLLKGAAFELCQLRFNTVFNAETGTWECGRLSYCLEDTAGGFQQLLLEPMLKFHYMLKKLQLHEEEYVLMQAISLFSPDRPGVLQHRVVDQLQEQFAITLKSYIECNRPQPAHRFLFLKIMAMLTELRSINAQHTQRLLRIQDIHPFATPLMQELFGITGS

[24] = AUC in mouse at 100 mg/kg, po; type: ADME, organism-based; set-up: dose 100 mg/kg, route po; details: in vivo
[25] = half life in dog at 2 mg/kg, po; type: ADME, organism-based, Canis lupus familiaris; details: in vivo
Cytochrome P450 2C9 [26] = target: T2, Cytochrome P450 2C9; assay: Inhibition of CYP2C9 (unknown origin); type: ADME
[27] = Clearance in dog at 0.25 mg/kg, iv; type: ADME, organism-based, Canis lupus familiaris; details: in vivo
[28] = Unbound clearance in dog at 0.25 mg/kg, iv; type: ADME, organism-based, Canis lupus familiaris; details: in vivo
[29] = Half life in mouse at 100 mg/kg, po; type: ADME, organism-based; details: in vivo
[30] = Solubility of the compound at pH 7.4; type: physicochemical; details: buffer
[31] = AUC in rat at 10 mg/kg, po; type: ADME, organism-based; set-up: dose 10 mg/kg, route po; details: in vivo
[32] = Half life in rat at 10 mg/kg, po; type: ADME, organism-based; details: in vivo
[33] = Passive permeability of compound; type: ADME; details: not told; read-out: permeability

For `CN1CC[C@]23c4c5ccc(O)c4O[C@H]2[C@@H](O)C=C[C@H]3[C@H]1C5` [MORPHINE], the Activity (Mus musculus [1]) was 98%.
Compound `CNC(=O)N(c1ccc(S(=O)(=O)Nc2ccon2)cn1)c1ccc(-c2ccc(Cl)c(C)c2)cc1OC` has an IC50 (Cytochrome P450 3A4 [2]) of over 50 µM, an IC50 (Cytochrome P450 3A4 [3]) of over 50 µM and an IC50 (Cytochrome P450 2C9 [4]) of 3.3 µM. It also gave a CL free [5] of 6130 mL/min/kg, a microsomal CLint [6] of 29 µL/min/mg and an IC50 [7] of 0.087 µM. The logD [8] was 0.8 and the clearance [9] was 14.7 mL/min/kg.
`COc1cc(-c2ccc(Cl)c(C)c2)ccc1N(C(=O)NC(C)C)c1ccc(S(=O)(=O)Nc2ccon2)cn1` showed an inhibition [10] of 3.9%.
In the case of `COc1cc(-c2ccc(Cl)c(C#N)c2)c(F)cc1-n1c(=O)ccc2cc(S(=O)(=O)Nc3ccon3)ccc21`, the CL free [5] is reported as 10100 mL/min/kg, the IC50 [7] is reported as 0.008 µM and the clearance [9] is reported as 35 mL/min/kg.
Compound `COc1ccc2cc([C@H](C)C(=O)O)ccc2c1` [NAPROXEN] has an Activity (Mus musculus [11]) of 87%.
`CNC(=O)N(c1ccc(S(=O)(=O)Nc2ncccn2)cn1)c1cc(F)c(-c2cccc(C(F)(F)F)c2)cc1OC` gave an IC50 (Cytochrome P450 3A4 [2]) of over 50 µM, an IC50 (Cytochrome P450 3A4 [3]) of 9 µM and a CL free [5] of 267 mL/min/kg. For the same compound, the IC50 [7] was 0.13 µM, the logD [8] was 1 and the clearance [9] was 0.5 mL/min/kg.
For `CNC(=O)N(c1ccc(S(=O)(=O)Nc2ccon2)cn1)c1cc(Cl)c(-c2cc(OC)nc(C(F)(F)F)c2)cc1OC`, the IC50 (Cytochrome P450 3A4 [2]) was over 50 µM and the IC50 (Cytochrome P450 3A4 [3]) was over 50 µM.
`CNC(=O)N(c1ccc(S(=O)(=O)Nc2ccon2)cn1)c1cc(Cl)c(-c2cc(OC)cc(C(F)(F)F)c2)cc1OC` showed an IC50 (Cytochrome P450 3A4 [2]) of 17 µM and an IC50 (Cytochrome P450 3A4 [3]) of over 50 µM.
In the case of `CNC(=O)N(c1ccc(S(=O)(=O)Nc2ncccn2)cn1)c1cc(F)c(-c2ccc(F)c(OC(F)(F)F)c2)cc1OC`, the bioavailability [12] is reported as 80%, the Activity (Mus musculus [13]) is reported as 55% and the clearance [14] is reported as 1.67 mL/min/kg. It also gave an Activity (Mus musculus [15]) of 83%, an IC50 (Cytochrome P450 3A4 [2]) of over 50 µM and an AUC [16] of 200 µM·h. The IC50 (Cytochrome P450 3A4 [3]) was over 50 µM, the Activity (Mus musculus [17]) was 95% and the bioavailability [18] was 104%. The IC50 [19] was 40 µM, the CL free [5] was 733 mL/min/kg and the bioavailability [20] was 95%. It also gave a Papp [21] of 18 ×10⁻⁶ cm/s, a CL free [22] of 183 mL/min/kg and an Activity (Mus musculus [23]) of 63%. For the same compound, the activity at 10 µM (PXR (NR1I2)) was 3%, the AUC [24] was 1150 µM·h and the Activity (Mus musculus [11]) was 89%. The half-life [25] was 18 h, the IC50 (Cytochrome P450 2C9 [26]) was 3.3 µM and the clearance [27] was 0.25 mL/min/kg. It also gave a logD [8] of 1.4, a CL free [28] of 60 mL/min/kg and a half-life [29] of 3.4 h. For the same compound, the solubility [30] was 260 µM (≈ 159 µg/mL), the AUC [31] was 212 µM·h and the clearance [9] was 1.17 mL/min/kg. For the same compound, the half-life [32] was 4.6 h.
For `COc1cc(-c2ccc(Cl)c(C)c2)ccc1N(C(=O)N(C)C)c1ccc(S(=O)(=O)Nc2ccon2)cn1`, the IC50 [7] was over 5 µM.
In the case of `COc1cc(-c2ccc(Cl)c(C)c2)ccc1-n1c(=O)ccc2cc(S(=O)(=O)Nc3ccon3)ccc21`, the IC50 (Cytochrome P450 3A4 [2]) is reported as 32 µM, the IC50 (Cytochrome P450 3A4 [3]) is reported as over 50 µM and the CL free [5] is reported as 2200 mL/min/kg. It also gave a microsomal CLint [6] of 28 µL/min/mg, an IC50 [7] of 5 µM and an IC50 ([7]; record 2) of 0.01 µM. The logD [8] was 2.5 and the clearance [9] was 13 mL/min/kg.
For `CNC(=O)N(c1ccc(S(=O)(=O)Nc2ccon2)cc1)c1ccc(-c2ccc(Cl)c(C)c2)cc1OC`, the CL free [5] was 3000 mL/min/kg, the IC50 [7] was 3.8 µM and the Papp [33] was 1.5 ×10⁻⁶ cm/s. The clearance [9] was 22.2 mL/min/kg.
